The NIST ThermoML archive (doi:10.1016/j.tca.2009.07.006)
± gives the expanded uncertainty stated by the source.

Assays:
[1] = xn = mol fraction of the nth substance listed; conditions: 101 kPa, Liquid
[2] = molar heat capacity at constant pressure; xn = mol fraction of the nth substance listed; conditions: 101 kPa, Liquid, Small sample (50 mg) DSC

CCOS(=O)(=O)[O-].CCn1cc[n+](C)c1 [1-ethyl-3-methylimidazolium ethyl sulfate] + O
Conditions	electrical conductivity, x1 = 0.2 [S/m]	electrical conductivity, x1 = 0.4 [S/m]	electrical conductivity, x1 = 0.6 [S/m]	electrical conductivity, x1 = 0.8 [S/m]	molar heat capacity at constant pressure, x1 = 0.2 [J/K/mol]	molar heat capacity at constant pressure, x1 = 0.4 [J/K/mol]	molar heat capacity at constant pressure, x1 = 0.6 [J/K/mol]	molar heat capacity at constant pressure, x1 = 0.8 [J/K/mol]
[1], 293.2 K	2.17 ± 0.042	1.23 ± 0.036	0.74 ± 0.012	0.466 ± 0.014	–	–	–	–
[1], 298.2 K	2.53 ± 0.02	1.44 ± 0.008	0.881 ± 0.014	0.569 ± 0.01	–	–	–	–
[1], 303.2 K	2.95 ± 0.03	1.695 ± 0.004	1.05 ± 0.016	0.696 ± 0.008	–	–	–	–
[1], 308.2 K	3.387 ± 0.03	1.95 ± 0.001	1.25 ± 0.022	0.837 ± 0.01	–	–	–	–
[1], 313.2 K	3.85 ± 0.04	2.243 ± 0.012	1.45 ± 0.028	0.991 ± 0.01	–	–	–	–
[1], 318.2 K	4.34 ± 0.05	2.563 ± 0.012	1.67 ± 0.038	1.159 ± 0.01	–	–	–	–
[1], 323.2 K	4.86 ± 0.08	2.9 ± 0.02	1.91 ± 0.04	1.342 ± 0.012	–	–	–	–
[1], 328.2 K	5.4 ± 0.076	3.257 ± 0.012	2.15 ± 0.062	1.54 ± 0.012	–	–	–	–
[1], 333.2 K	5.93 ± 0.084	3.617 ± 0.024	2.41 ± 0.072	1.746 ± 0.012	–	–	–	–
[1], 338.2 K	6.5 ± 0.07	3.997 ± 0.012	2.69 ± 0.088	1.94 ± 0.001	–	–	–	–
[1], 343.2 K	7.07 ± 0.092	4.393 ± 0.012	2.99 ± 0.11	2.173 ± 0.012	–	–	–	–
[1], 348.2 K	7.64 ± 0.08	4.793 ± 0.012	3.28 ± 0.04	2.417 ± 0.012	–	–	–	–
[1], 353.2 K	8.24 ± 0.072	5.207 ± 0.03	3.62 ± 0.12	2.673 ± 0.024	–	–	–	–
[2], 303.2 K	–	–	–	–	146.4 ± 2.3	218.8 ± 4.5	290 ± 4.5	359.1 ± 6
[2], 308.2 K	–	–	–	–	147.5 ± 2.3	220.3 ± 3.5	291.4 ± 4.5	360.8 ± 6.1
[2], 313.2 K	–	–	–	–	148.7 ± 2.3	221.6 ± 3.7	292.8 ± 4.5	362.3 ± 5.6
[2], 318.2 K	–	–	–	–	149.5 ± 2.3	223.1 ± 3.5	294.4 ± 4.6	364 ± 5.6
[2], 323.2 K	–	–	–	–	150.8 ± 2.3	224.7 ± 3.5	295.9 ± 4.6	365.7 ± 5.7
[2], 328.2 K	–	–	–	–	151.9 ± 2.4	226.1 ± 3.5	297.5 ± 4.6	367.5 ± 5.7
[2], 333.2 K	–	–	–	–	153.2 ± 2.4	227.8 ± 3.5	298.9 ± 4.6	369.3 ± 5.7
[2], 338.2 K	–	–	–	–	154.7 ± 2.4	229.4 ± 3.6	300.6 ± 4.7	371.5 ± 5.8
[2], 343.2 K	–	–	–	–	155.9 ± 2.7	231 ± 3.6	302.2 ± 4.7	373.2 ± 5.8
[2], 348.2 K	–	–	–	–	157.2 ± 2.9	232.8 ± 3.6	304 ± 4.7	375.5 ± 5.8
[2], 353.2 K	–	–	–	–	158.4 ± 3.1	234.6 ± 3.6	305.8 ± 4.7	377.5 ± 5.9

CCn1cc[n+](C)c1.O=S(=O)([O-])C(F)(F)F [1-ethyl-3-methylimidazolium trifluoromethanesulfonate] + O
Conditions	electrical conductivity, [1] [S/m]	molar heat capacity at constant pressure, [2] [J/K/mol]
293.2 K, x1 = 0.2	3.437 ± 0.012	–
293.2 K, x1 = 0.4	2.35 ± 0.042	–
293.2 K, x1 = 0.6	1.64 ± 0.026	–
293.2 K, x1 = 0.8	1.17 ± 0.05	–
298.2 K, x1 = 0.2	3.927 ± 0.012	–
298.2 K, x1 = 0.4	2.67 ± 0.06	–
298.2 K, x1 = 0.6	1.86 ± 0.028	–
298.2 K, x1 = 0.8	1.34 ± 0.042	–
303.2 K, x1 = 0.1	–	102.6 ± 1.7
303.2 K, x1 = 0.2	4.47 ± 0.02	133.3 ± 2.1
303.2 K, x1 = 0.4	3.05 ± 0.07	197.5 ± 4.6
303.2 K, x1 = 0.6	2.12 ± 0.034	260.1 ± 4.2
303.2 K, x1 = 0.8	1.56 ± 0.054	320.1 ± 5
303.2 K, x1 = 0.9	–	351 ± 5.4
308.2 K, x1 = 0.1	–	103 ± 2
308.2 K, x1 = 0.2	5.037 ± 0.03	134.1 ± 2.1
308.2 K, x1 = 0.4	3.46 ± 0.06	198.7 ± 5.2
308.2 K, x1 = 0.6	2.42 ± 0.042	261.6 ± 4.1
308.2 K, x1 = 0.8	1.79 ± 0.06	321.9 ± 5
308.2 K, x1 = 0.9	–	352.7 ± 5.5
313.2 K, x1 = 0.1	–	103.4 ± 2
313.2 K, x1 = 0.2	5.613 ± 0.012	134.7 ± 2.1
313.2 K, x1 = 0.4	3.87 ± 0.07	199.9 ± 3.6
313.2 K, x1 = 0.6	2.73 ± 0.042	263.2 ± 4.8
313.2 K, x1 = 0.8	2.01 ± 0.05	323.7 ± 5
313.2 K, x1 = 0.9	–	354.8 ± 5.5
318.2 K, x1 = 0.1	–	103.8 ± 2
318.2 K, x1 = 0.2	6.213 ± 0.024	135.5 ± 2.1
318.2 K, x1 = 0.4	4.31 ± 0.06	201.3 ± 3.1
318.2 K, x1 = 0.6	3.047 ± 0.012	264.5 ± 4.1
318.2 K, x1 = 0.8	2.27 ± 0.07	325.4 ± 5
318.2 K, x1 = 0.9	–	356.7 ± 5.5
323.2 K, x1 = 0.1	–	104.3 ± 1.9
323.2 K, x1 = 0.2	6.837 ± 0.03	136.4 ± 2.2
323.2 K, x1 = 0.4	4.77 ± 0.06	202.4 ± 3.1
323.2 K, x1 = 0.6	3.393 ± 0.024	266 ± 4.1
323.2 K, x1 = 0.8	2.55 ± 0.072	327.3 ± 5.1
323.2 K, x1 = 0.9	–	358.4 ± 5.6
328.2 K, x1 = 0.1	–	105 ± 1.9
328.2 K, x1 = 0.2	7.47 ± 0.034	137.1 ± 2.3
328.2 K, x1 = 0.4	5.24 ± 0.07	203.8 ± 3.2
328.2 K, x1 = 0.6	3.757 ± 0.03	267.6 ± 4.4
328.2 K, x1 = 0.8	2.84 ± 0.09	329.1 ± 5.5
328.2 K, x1 = 0.9	–	360.2 ± 5.6
333.2 K, x1 = 0.1	–	105.5 ± 2
333.2 K, x1 = 0.2	8.113 ± 0.024	138 ± 2.4
333.2 K, x1 = 0.4	5.72 ± 0.09	205.2 ± 3.2
333.2 K, x1 = 0.6	4.127 ± 0.03	269.1 ± 4.2
333.2 K, x1 = 0.8	3.14 ± 0.092	331.1 ± 6.3
333.2 K, x1 = 0.9	–	362 ± 5.6
338.2 K, x1 = 0.1	–	106.1 ± 1.9
338.2 K, x1 = 0.2	8.76 ± 0.02	138.8 ± 2.4
338.2 K, x1 = 0.4	6.22 ± 0.084	206.4 ± 3.5
338.2 K, x1 = 0.6	4.513 ± 0.042	270.9 ± 4.2
338.2 K, x1 = 0.8	3.46 ± 0.092	332.7 ± 6.3
338.2 K, x1 = 0.9	–	364 ± 5.6
343.2 K, x1 = 0.1	–	106.4 ± 2.1
343.2 K, x1 = 0.2	9.413 ± 0.012	139.8 ± 2.4
343.2 K, x1 = 0.4	6.71 ± 0.08	207.7 ± 4.2
343.2 K, x1 = 0.6	4.903 ± 0.042	272.3 ± 4.2
343.2 K, x1 = 0.8	3.78 ± 0.1	334.6 ± 6.5
343.2 K, x1 = 0.9	–	365.9 ± 5.8
348.2 K, x1 = 0.1	–	107 ± 1.8
348.2 K, x1 = 0.2	10.05 ± 0.02	140.6 ± 2.4
348.2 K, x1 = 0.4	7.22 ± 0.088	208.9 ± 4.1
348.2 K, x1 = 0.6	5.307 ± 0.05	273.8 ± 4.9
348.2 K, x1 = 0.8	4.13 ± 0.13	336.4 ± 6.5
348.2 K, x1 = 0.9	–	368 ± 5.7
353.2 K, x1 = 0.1	–	107.5 ± 1.8
353.2 K, x1 = 0.2	10.71 ± 0.042	141.5 ± 2.7
353.2 K, x1 = 0.4	7.75 ± 0.09	210.1 ± 5.5
353.2 K, x1 = 0.6	5.743 ± 0.03	275.5 ± 4.3
353.2 K, x1 = 0.8	4.48 ± 0.09	338.2 ± 6.5
353.2 K, x1 = 0.9	–	369.8 ± 6.1
